Experimental data: patent publication US20140079836A1, “METHODS AND COMPOSITIONS FOR ALTERING HEALTH, WELLBEING, AND LIFESPAN” (LifeSpan Extension, LLC, priority 2008, published 2014)
Values joined by “and” are separate entries in the source; they are usually repeats but may differ in a detail not shown here. Equal entries are not always repeated.

Tested on: genes involved in longevity (Array 1)
Assay: Custom RT-PCR microarray (Array 1) gene expression in skin fibroblasts, UVB/UVA1
Assay type: cell-based, human
Method: Seeding of cells: On Day 1, each cell culture was seeded into 6 well cluster dishes at ˜1.5×10^5 cells in 4 mls medium per well. Three wells were seeded per test condition or control.
Experimental phase: On Day 3, wells were washed 1× with 2 mls medium, fed back 2 mls medium without fetal bovine serum and preincubated for 30-60 minutes before challenge with test or control conditions. After the preincubation, medium was aspirated from the wells and 2.5 mls of test or control condition in medium with 1% fetal bovine serum was pipetted into the appropriate wells.
(3) UVA1, UVB exposed and unexposed cells without test condition were used as controls. The experimental phase ended at 24 hours post UV exposure. Cells from each test and control parameter were then prepped for RNA isolation as described below.
UVB/UVA1 exposure: Cells exposed to UV received 200 mJ/cm^2 UVB/1 MED UVA1 using Thermo Oriel solar simulator model SP66923-3056. Cells were exposed from the bottom of the culture dish. The UV dose delivered to the cells was adjusted for interference from the plastic in the culture dish.
Preparation of RNA: The RNA was isolated using the Qiagen RNEasy Plus Mini Kit according to the manufacturer's protocol which can be found on the World Wilde Web at qiagen.com/literature/Defaultaspx?Term=&Language=EN&LiteratureType=4& ProductCategory=10162. The RNA was quantified and examined for purity using the 260/280 nm read method in a μ Quant spectrophotometer before use in the array.
Creation and Performance of a Custom Microarray (“Array 1”): Through the Custom Array design service of Superarray Bioscience Corporation, a 96 well RT-PCR microarray (“Array 1”) was developed to illustrate genetic responses in cells treated as above for specific genes involved in longevity as well as the relevant quality controls. The array was performed in compliance with manufacturer's guidelines and by recommended manufacturer's protocol as can be found on the World Wilde Web at superarray.com/Manual/perarrayplate.pdf
(§1) Custom Microarray Results: The results from the microarrays were determined using the delta CT method which uses comparisons of control genes and threshold cycles of genes of interest to generate relative expression values. The full set of experimental conditions was cross referenced and the data is provided herewith in DATA TABLE 3.
Preparation of RNA: The RNA was isolated using the Qiagen RNEasy Plus Mini Kit according to the manufacturer's protocol which can be found on the World Wide Web at qiagen.com/literature/Default. aspx?Term=&Language=EN&LiteratureType=4&ProductCategory=10162.
The RNA was quantified and examined for purity using the 260/280 nm read method in a μ Quant spectrophotometer before use in the array.
Creation and Performance of the Custom Microarray: Through the Custom Array design service of Superarray Bioscience Corporation, a 96 well RT-PCR Microarray was developed to illustrate genetic responses in cells treated as above for specific genes involved in longevity as well as the relevant quality controls. The array was performed in compliance with manufacturer's guidelines and by recommended manufacturer's protocol as can be found on the World Wide Web at superarray.com/Manual/perarrayplate.pdf.
as §1, with “4.” for “3.”
as §1, with “5. […]” for “3.”

[1] = donor four cell line, UVB, agent 4 hr incubation
[2] = donor four cell line, UVB, agent continuous incubation
[3] = donor three idebenone + UVB 4 hr Incubation
[4] = donor three idebenone + UVB Continuous Incubation
[5] = donor three idebenone + UVB vs. Green tea + UVB 4 hr Incubation
[6] = donor three vs. donor two idebenone + UVB 4 hr Incubation
[7] = donor three vs. donor two idebenone + UVB Continuous Incubation

COC1=C(OC)C(=O)C(CCCCCCCCCCO)=C(C)C1=O [Idebenone, 6-(10-hydroxydecyl)-2,3-dimethoxy-5-methyl-1,4-benzoquin-one]
IFI44 expression [1]: 2.63 | NADSYN1 expression [1]: 2.21 | NFKB1 expression [1]: 3.24 | PARP1 Expression [1]: 4.27 | TERT expression [1]: 8.54 | IFI44 expression [2]: 2.98 | TERT expression [2]: 4.36 | TERT expression (donor one cell line, UVB, agent continuous incubation): 8.50 | ACE expression fold change [3]: 2.29 | ACTB expression fold change [3]: −2.01 | APOE expression fold change [3]: −1.32 | BAX expression fold change [3]: 1.41 | BCL2 expression fold change [3]: 4.13 | CASP2 expression fold change [3]: 1.31 | CASP9 expression fold change [3]: 2.06 | CCL4L1 expression fold change [3]: 9.82 | CLK1 expression fold change [3]: 1.41 | COX1 expression fold change [3]: −1.11 | CREBBP expression fold change [3]: −1.32 | CYP19A1 expression fold change [3]: 6.94 | DDC expression fold change [3]: 4.74 | GAPDH expression fold change [3]: −1.04 | GH1 expression fold change [3]: 3.35 | HIGX1A fold change [3]: 1.93 | HLA-DRA expression fold change [3]: 4.27 | HPRT1 expression fold change [3]: 3.47 | HSPA1A expression fold change [3]: 1.68 | HSPA1B expression fold change [3]: 1.99 | HSPA1L expression fold change [3]: −1.42 | IFI44 expression fold change [3]: 2.63 | IGF1 expression fold change [3]: 4.13 | IGF2 expression fold change [3]: −1.24 | IL1A expression fold change [3]: 2.54 | IL6 expression fold change [3]: 1.27 | IL10 expression fold change [3]: 1.46 | KRAS expression fold change [3]: 1.27 | MAPK14 expression fold change [3]: 1.46 | NADSYN1 expression fold change [3]: 2.21 | NFKB1 expression fold change [3]: 3.24 | NOS2A expression fold change [3]: 16.51 | PARP1 expression fold change [3]: 4.27 | PARP2 expression fold change [3]: 3.72 | PPARG expression fold change [3]: 1.99 | PPC fold change [3]: 1.07 and 1.23 | PTGS2 expression fold change [3]: 2.63 | RTC fold change [3]: 3.13 and 4.74 | SHC1 expression fold change [3]: 1.19 | SIRT1 expression fold change [3]: 1.41 | SOD1 expression fold change [3]: 1.41 | SOD2 expression fold change [3]: 1.07 | TEP1 expression fold change [3]: 1.23 | TERT expression fold change [3]: 8.54 | TNF expression fold change [3]: −1.19 | TP53 expression fold change [3]: −1.15 | ACE expression fold change [4]: 2.34 | ACTB expression fold change [4]: −3.93 | APOE expression fold change [4]: 1.49 | BAX expression fold change [4]: 2.26 | BCL2 expression fold change [4]: 7.09 | CASP2 expression fold change [4]: 1.09 | CASP9 expression fold change [4]: 5.19 | CCL4L1 expression fold change [4]: 10.02 | CLK1 expression fold change [4]: 1.71 | COX1 expression fold change [4]: 1.05 | CREBBP expression fold change [4]: −1.21 | CYP19A1 expression fold change [4]: 5.56 | DDC expression fold change [4]: 4.84 | GAPDH expression fold change [4]: −1.83 | GH1 expression fold change [4]: 2.18 | HIGX1A fold change [4]: 1.71 | HLA-DRA expression fold change [4]: 3.93 | HPRT1 expression fold change [4]: 1.83 | HSPA1A expression fold change [4]: 1.34 | HSPA1B expression fold change [4]: 1.71 | HSPA1L expression fold change [4]: −5.37 | IFI44 expression fold change [4]: 2.98 | IGF1 expression fold change [4]: 3.42 | IGF2 expression fold change [4]: −1.09 | IL1A expression fold change [4]: 1.97 | IL6 expression fold change [4]: −1.83 | IL10 expression fold change [4]: 1.13 | KRAS expression fold change [4]: 1.90 | MAPK14 expression fold change [4]: 1.65 | NADSYN1 expression fold change [4]: 1.44 | NFKB1 expression fold change [4]: 2.34 | NOS2A expression fold change [4]: 3.80 | PARP1 expression fold change [4]: 1.65 | PARP2 expression fold change [4]: 3.42 | PPARG expression fold change [4]: 3.19 | PPC fold change [4]: 1.25 and 1.21 | PTGS2 expression fold change [4]: 1.83 | SHC1 expression fold change [4]: −1.49 | SIRT1 expression fold change [4]: 1.77 | SOD1 expression fold change [4]: −1.71 | SOD2 expression fold change [4]: 1.17 | TEP1 expression fold change [4]: 1.13 | TERT expression fold change [4]: 4.36 | TNF expression fold change [4]: −1.09 | TP53 expression fold change [4]: 1.21 | ACE expression fold change [5]: −1.11 | ACTB expression fold change [5]: −1.57 | APOE expression fold change [5]: 1.41 | BAX expression fold change [5]: −2.23 | BCL2 expression fold change [5]: −1.15 | CASP2 expression fold change [5]: −2.47 | CASP9 expression fold change [5]: −1.94 | CCL4L1 expression fold change [5]: 9.48 | CLK1 expression fold change [5]: −1.11 | COX1 expression fold change [5]: −1.81 | CREBBP expression fold change [5]: −1.00 | CYP19A1 expression fold change [5]: 9.48 | DDC expression fold change [5]: 42.08 | GAPDH expression fold change [5]: −1.57 | GH1 expression fold change [5]: 16.51 | HIGX1A fold change [5]: 17.09 | HLA-DRA expression fold change [5]: 18.96 | HPRT1 expression fold change [5]: 1.41 | HSPA1A expression fold change [5]: −1.87 | HSPA1B expression fold change [5]: −2.08 | HSPA1L expression fold change [5]: 1.80 | IFI44 expression fold change [5]: −1.28 | IGF1 expression fold change [5]: 8.85 | IGF2 expression fold change [5]: −1.15 | IL1A expression fold change [5]: 7.70 | IL6 expression fold change [5]: −1.04 | IL10 expression fold change [5]: 4.74 | KRAS expression fold change [5]: −1.69 | MAPK14 expression fold change [5]: −1.63 | NADSYN1 expression fold change [5]: −1.63 | NFKB1 expression fold change [5]: −1.04 | NOS2A expression fold change [5]: 34.18 | PARP1 expression fold change [5]: −1.57 | PARP2 expression fold change [5]: 7.44 | PPARG expression fold change [5]: 1.74 | PTGS2 expression fold change [5]: 2.14 | SHC1 expression fold change [5]: −1.11 | SIRT1 expression fold change [5]: −1.15 | SOD1 expression fold change [5]: −1.32 | SOD2 expression fold change [5]: −1.24 | TEP1 expression fold change [5]: −1.00 | TERT expression fold change [5]: 7.97 | TNF expression fold change [5]: 7.44 | TP53 expression fold change [5]: −1.32 | ACE expression fold change [6]: 1.16 | ACTB expression fold change [6]: 1.43 | APOE expression fold change [6]: −1.06 | BAX expression fold change [6]: 1.95 | BCL2 expression fold change [6]: 1.76 | CASP2 expression fold change [6]: 1.33 | CASP9 expression fold change [6]: 1.58 | CCL4L1 expression fold change [6]: 1.08 | CLK1 expression fold change [6]: −1.22 | COX1 expression fold change [6]: 1.12 | CREBBP expression fold change [6]: 1.70 | CYP19A1 expression fold change [6]: 1.01 | DDC expression fold change [6]: 1.08 | GAPDH expression fold change [6]: 1.16 | GH1 expression fold change [6]: −1.06 | HIGX1A fold change [6]: −1.50 | HLA-DRA expression fold change [6]: 1.38 | HPRT1 expression fold change [6]: 1.38 | HSPA1A expression fold change [6]: 2.16 | HSPA1B expression fold change [6]: 2.32 | HSPA1L expression fold change [6]: −1.14 | IFI44 expression fold change [6]: 1.53 | IGF1 expression fold change [6]: −1.79 | IGF2 expression fold change [6]: −1.03 | IL1A expression fold change [6]: −1.40 | IL6 expression fold change [6]: −6.01 | IL10 expression fold change [6]: 1.76 | KRAS expression fold change [6]: 1.76 | MAPK14 expression fold change [6]: 1.48 | NADSYN1 expression fold change [6]: 1.08 | NFKB1 expression fold change [6]: 1.01 | NOS2A expression fold change [6]: −1.56 | PARP1 expression fold change [6]: 2.32 | PARP2 expression fold change [6]: 1.16 | PPARG expression fold change [6]: 1.29 | PTGS2 expression fold change [6]: 2.95 | SHC1 expression fold change [6]: 1.20 | SIRT1 expression fold change [6]: 1.53 | SOD1 expression fold change [6]: 1.24 | SOD2 expression fold change [6]: −1.35 | TEP1 expression fold change [6]: 1.76 | TERT expression fold change [6]: −1.14 | TNF expression fold change [6]: 1.95 | TP53 expression fold change [6]: −1.31 | ACE expression fold change [7]: 1.40 | ACTB expression fold change [7]: 4.88 | APOE expression fold change [7]: −2.48 | BAX expression fold change [7]: −1.64 | BCL2 expression fold change [7]: −1.53 | CASP2 expression fold change [7]: −1.38 | CASP9 expression fold change [7]: −1.88 | CCL4L1 expression fold change [7]: −2.09 | CLK1 expression fold change [7]: −1.04 | COX1 expression fold change [7]: −2.32 | CREBBP expression fold change [7]: 1.14 | CYP19A1 expression fold change [7]: −2.48 | DDC expression fold change [7]: −1.58 | GAPDH expression fold change [7]: 2.13 | GH1 expression fold change [7]: 1.40 | HIGX1A fold change [7]: −2.16 | HLA-DRA expression fold change [7]: 1.31 | HPRT1 expression fold change [7]: 2.20
